# Test results reported in PubChem BioAssay (NCI).
# Values joined by “and” are separate entries in the source; they are usually repeats but may differ in a detail not shown here. Equal entries are not always repeated.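 Test compounds were applied to cells in 96-well plates for 48 hours at 5 doses. Here, GI50 denotes the concentration required for 50% inhibition of growth. TGI: total growth inhibition.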
# Key:
# Experiment in all cases: NCI tumour cell line growth inhibition, 48 h
# [1] = tested on: SK-OV-3 ovarian
# [2] = tested on: OVCAR-3 ovarian
# [3] = tested on: OVCAR-8 ovarian
# [4] = tested on: M14 melanoma
# [5] = tested on: NCI-H226 lung
# [6] = tested on: SK-MEL-28 melanoma
# [7] = tested on: HCT-15 colon
# [8] = tested on: NCI/ADR-RES ovarian
Structure (SMILES),GI50 [1],TGI [1],GI50 [2],TGI [2],GI50 [3],TGI [3] [µM],GI50 [4],TGI [4],GI50 [5] [µM],TGI [5] [µM],GI50 [6],TGI [6],GI50 [7],TGI [7] [µM],GI50 [8],TGI [8] [µM]
CC1=C(C(=O)Nc2ccc(Cl)c(Cl)c2)C(c2cccc(Oc3ccccc3)c2)NC(=O)N1 (stereo unspecified),25.5 µM,> 50 µM,7.75 µM,17 µM,7.67 µM,22,17.8 µM,31.7 µM,8.36,19.8,11.1 µM,33.2 µM,6.61 µM,48.2,–,–
O=C(Nc1ccc(F)cc1)c1cc(S(=O)(=O)Nc2nc3ccccc3o2)c(SCc2ccccc2)cc1Cl,22.1 µM,53.1 µM,14.8 µM,28.1 µM,17.7 µM,36,16 µM,30.8 µM,12.1,28.4,25.8 µM,58.2 µM,15.8 µM,30.1,22.8 µM,54.4
[N-]=[N+]=Nc1cc(=O)[nH]nc1-c1ccccc1,–,> 100 µM,–,> 100 µM,–,> 100,–,> 100 µM,–,> 100,–,> 100 µM,–,> 100,–,> 100
N#CC1=C(N)Oc2cc(O)ccc2C1c1cccc2ccccc12 (stereo unspecified),18.1 µM,42.9 µM,4.07 µM,16.6 µM,23.7 µM,66.1,5.72 µM,21.6 µM,24.2,82.3,12.7 µM,27.9 µM,8.71 µM,26.9,3.98 µM,22.8
COc1ccc(-n2c(C)cc(-c3ccccc3)c2C)cc1,6.83 µM,68.6 µM,2.61 µM,10.7 µM,3.51 µM,38,2.59 µM,9.14 µM,5.75,31.2,3.68 µM,> 100 µM,1.95 µM,13.3,3.33 µM,21.5
CCOC(=O)/C=C(/C)Sc1cc(O)c2ccccc2c1O,13.8 µM,44.5 µM,2 µM,5.1 µM,2.99 µM,12.9,1.76 µM,3.48 µM,14.5,32.8,2.34 µM,5.45 µM,2.54 µM,8.83,3.99 µM,25.2
COc1ccc(-c2coc3c4c(ccc3c2=O)OCO4)cc1OC,–,83.6 µM,–,> 100 µM,–,> 100,–,> 100 µM,–,> 100,–,> 100 µM,–,> 100,–,> 100
O=C(CSC1CCc2ccccc21)N/N=C/c1ccccc1O (stereo unspecified),11.5 µM,> 100 µM,4.67 µM,48.9 µM,3.66 µM,> 100,3.7 µM,63 µM,3.11,35.8,4.72 µM,> 100 µM,2.27 µM,> 100,3.44 µM,35
CSc1ccc2c(c1)C(=O)c1c-2n(CCCBr)c(=O)c2cc([N+](=O)[O-])ccc12,12.1 µM,> 100 µM,> 100 µM,> 100 µM,27.6 µM,> 100,3.38 µM,> 100 µM,33.6,> 100,51.8 µM,> 100 µM,47.2 µM,> 100,5.5 µM,> 100
COc1cc2c3c(n(CCCOC(=O)C(F)(F)F)c(=O)c2cc1OC)-c1cc2c(cc1C3=O)OCO2,–,> 100 µM,0.0425 µM,0.306 µM,–,0.664,< 0.0123 µM,–,< 0.0151,0.161,–,> 100 µM,0.103 µM,> 100,< 0.0289 µM,0.137
COc1ccc(O)c(C(=O)c2ccc(C(=O)N[C@H]3CCCNC[C@@H]3NC(=O)c3ccncc3)cc2)c1F,5.57 µM,> 25 µM,4.3 µM,> 23 µM,5.5 µM,> 21.3,6.43 µM,> 22.4 µM,> 25,> 25,> 18.4 µM,> 25 µM,> 25 µM,> 25,> 25 µM,> 25
Cc1nn(C(=O)c2ccc(Cl)cc2)c2c1C(/C=C/c1ccccc1)SC(N)=N2 (stereo unspecified),–,> 10 µM,–,> 10 µM,–,> 10,–,> 10 µM,–,> 10,–,> 10 µM,–,> 10,–,> 10
Cc1cc(C)c(/C=C2\C(=O)Nc3ccc(NC(=O)CCCCCCC(=O)NO)cc32)[nH]1,0.664 µM,4.56 µM,0.882 µM,> 78.2 µM,0.638 µM,> 100,0.75 µM,> 100 µM,> 100,> 100,0.525 µM,> 100 µM,> 100 µM,> 100,> 100 µM,> 100
OCc1ccn2c1[C@@H](O)CC2,–,> 100 µM,–,> 100 µM,–,> 100,–,> 100 µM,–,> 100,–,> 100 µM,–,> 100,–,> 100
c1ccc2c(c1)c1c(c3ccccc32)CN2CCCC2C1 (stereo unspecified),–,> 100 µM,–,22.9 µM,–,14.5,–,15.8 µM,–,–,–,12.9 µM,–,> 70.4,–,> 41.5
COc1cc2c(c(OC)c1OC)-c1ncc3cc4c(cc3c1C2)OCO4,21.9 µM,46.5 µM,15.5 µM,38.1 µM,13.9 µM,36.9,45.5 µM,> 100 µM,–,–,54.6 µM,> 100 µM,10.8 µM,> 100,32.1 µM,> 100
O=C1NC(=O)/C(=C\c2ccccc2)C2=C1CCCC2,14.6 µM,27.8 µM,2.71 µM,8.17 µM,9.92 µM,41.1,3.72 µM,12.8 µM,10.8,23,4.14 µM,13.9 µM,10.4 µM,22.5,7.54 µM,19.2
O=S(=O)(Nc1ccc(F)cc1F)c1ccc(-c2cnc(C3CC3)o2)cc1,2.52 µM,61.6 µM,0.493 µM,11.9 µM,1.57 µM,> 95.2,0.376 µM,> 59.9 µM,1.7,43.3,13.1 µM,> 71.9 µM,0.37 µM,46.7,0.394 µM,15

Structure (SMILES),GI50 [1],TGI [1],GI50 [2],TGI [2],GI50 [3],TGI [3] [µM],GI50 [4],TGI [4],GI50 [5] [µM],TGI [5] [µM],GI50 [6],TGI [6],GI50 [7],TGI [7] [µM],GI50 [8],TGI [8] [µM]
Cc1cc(C)c(NC(=O)c2sc3nc4c(cc3c2N)CN(Cc2ccccc2)CC4)c(C)c1,5.35 µM,> 100 µM,2.32 µM,12.6 µM,4.72 µM,> 100,2.89 µM,31.5 µM,4.69,> 100,6.97 µM,40.4 µM,2.12 µM,> 100,1.64 µM,6.24
OCCCNc1nccc(-c2c(-c3ccc(F)cc3)nn3cc(C(F)(F)F)ccc23)n1,13 µM,> 25 µM,15.1 µM,> 25 µM,16.9 µM,> 25,15.4 µM,> 25 µM,9.49,> 25,15.9 µM,> 25 µM,8.1 µM,> 25,8.25 µM,> 25
CCOC(=O)c1c(NC(=O)c2cccc(C(F)(F)F)c2)sc2c(CN(C)C)c(O)ccc12,19.1 µM,41.8 µM,10.1 µM,21.7 µM,6.12 µM,18.8,1.89 µM,3.53 µM,16,36.2,1.76 µM,3.21 µM,2.13 µM,5.77,8.82 µM,21
C=C1C(=O)O[C@H]2[C@H]1CC/C(COC(=O)/C=C\C(=O)NCc1ccc(Cn3c(=O)sn(CCCC)c3=O)cc1)=C\CC[C@@]1(C)O[C@@H]21,3.33 µM,8.55 µM,0.229 µM,0.589 µM,0.828 µM,3.32,0.678 µM,2.06 µM,1.58,3.39,1.41 µM,2.74 µM,0.202 µM,0.467,1.51 µM,6.13
Cc1[nH]c(/C=C2\C(=O)Nc3ccccc32)c(C)c1CCC(=O)O,19.5 µM,59.5 µM and 80.6 µM,28.8 µM,> 100 µM and 73.3 µM,34.7 µM,> 100,17 µM,49.3 µM and 58.8 µM,15.2,42.6,25.4 µM,80 µM and 92.6 µM,–,> 100,–,> 100
COc1cc(C(=O)N2CCN(c3ncccn3)CC2)c(N)cc1OCc1ccccc1,> 100 µM,> 100 µM,85.6 µM,> 100 µM,> 100 µM,> 100,> 100 µM,> 100 µM,> 100,> 100,> 100 µM,> 100 µM,> 100 µM,> 100,> 100 µM,> 100
CC1(C)CC(=O)C(C=NC(=O)c2ccncc2)=C(O)C1,–,> 100 µM,–,> 100 µM,–,> 100,–,> 100 µM,–,> 100,–,> 100 µM,–,> 100,–,> 100
CCOc1ccncc1[N+](=O)[O-],–,> 100 µM,–,–,–,> 100,–,> 100 µM,–,> 100,–,> 100 µM,–,> 100,–,> 100
Cc1nn(C(=O)Cc2ccccc2)c2c1C(c1ccc(Cl)cc1)SC(N)=N2 (stereo unspecified),–,> 100 µM,–,–,–,> 100,–,> 100 µM,–,–,–,> 100 µM,–,> 100,–,–
NC(=O)OCCn1cc(-c2nc(-c3c[nH]c4ncccc34)cs2)c2ccccc21,1.54 µM,6.44 µM,1.27 µM,3.83 µM,–,–,1.33 µM,4.53 µM,1.68,12.5,2.05 µM,14.8 µM,1.92 µM,> 100,2.82 µM,> 100
CN1C(=O)/C(=C/c2c(Cl)n(C)c3ccccc23)c2ccccc21,4.84 µM and 1.57 µM,2.91 µM,2.05 µM and 1.45 µM,5.17 µM and 2.76 µM,5.49 µM,–,2.81 µM and 1.32 µM,2.8 µM,5.05,–,5.24 µM and 1.62 µM,3.05 µM,2.69 µM and 1.89 µM,3.56,1.92 µM,5.17
CCn1sc2ccccc2c1=O,–,> 54.9 µM,–,29.7 µM,–,35.8,–,12 µM,–,50.7,–,36 µM,–,27.5,–,69.3
COC(=O)[C@@H](C)C[C@H](Cc1ccccc1)NC(=O)c1csc([C@@H](C[C@H](C(C)C)N(C)C(=O)[C@@H](NC(=O)[C@H]2CCCCN2C)C2CCCCC2)OC(C)=O)n1,0.000567 µM and 0.0025 µM,> 25 µM,–,–,0.00354 µM and 0.0025 µM,> 25,0.000304 µM and < 0.0025 µM,0.00312 µM and < 0.0025 µM,0.0025,> 25,–,–,0.00102 µM and 0.0025 µM,> 25,0.0215 µM and 0.0481 µM,> 25
O=C1NC(=O)C(c2cccc([N+](=O)[O-])c2)=C1Nc1cc(Cl)c(O)c(Cl)c1,12 µM,> 25 µM,> 17.9 µM,> 25 µM,> 25 µM,> 25,> 25 µM,> 25 µM,–,–,> 25 µM,> 25 µM,> 25 µM,> 25,> 25 µM,> 25
COc1ncc(-c2ccc3ncnc(Nc4cccc(Cl)c4)c3c2)cc1NS(=O)(=O)C1CC1,–,–,–,–,2.18 µM,> 100,> 100 µM,> 100 µM,–,–,> 100 µM,> 100 µM,–,–,1.17 µM,> 100
Cc1nc(-[n+]2nc(-c3ccncc3)nn2-c2ccccc2)sc1C,–,67.5 µM,–,–,–,> 100,–,> 100 µM,–,95.9,–,> 100 µM,–,> 100,–,> 100
c1ccc2nc3c(nc2c1)sc1ccccc13,–,29.5 µM,–,> 100 µM,–,–,–,> 100 µM,–,66.8,–,> 100 µM,–,> 100,–,> 100
O=C1c2ccccc2-c2c1c1ccccc1c(=O)n2CCCCl,19.1 µM,62.2 µM,3.23 µM,8.18 µM,9.28 µM,44.8,35.5 µM,> 100 µM,–,–,> 100 µM,> 100 µM,5.99 µM,> 100,16.9 µM,73.3
